{"source": "patent US8710073B2", "about": "“Anti-infective derivatives, method for the production thereof, pharmaceutical compositions containing same and uses of said derivatives in treatment” (Centre National de la Recherche Scientifique (C.N.R.S.), priority 2008, dated 2014)", "key": {"[1]": {"target": "InhA enoylreductase (Mycobacterium tuberculosis, UniProt P9WGR1)", "sequence (P9WGR1 whole entry, looked up)": "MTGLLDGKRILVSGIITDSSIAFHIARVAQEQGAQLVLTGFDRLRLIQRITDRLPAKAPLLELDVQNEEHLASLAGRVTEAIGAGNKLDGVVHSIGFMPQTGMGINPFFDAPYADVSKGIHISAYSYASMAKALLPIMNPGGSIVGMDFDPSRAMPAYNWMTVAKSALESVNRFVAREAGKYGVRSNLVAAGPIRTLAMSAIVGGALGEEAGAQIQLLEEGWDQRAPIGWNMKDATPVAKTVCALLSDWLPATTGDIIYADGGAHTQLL", "assay": "InhA enoylreductase activity inhibition test (NADH disappearance at 340 nm)", "assay_type": "biochemical", "conditions": "read-out: InhA inhibition percentage; for inhibition at 10 µM: inhibitor concentration 10 μM, preincubation time 5 min", "protocol": "The InhA protein was expressed in E. coli after cloning the inhA gene in a plasmidic vector of the pET type. Growing the resulting strain and inducing expression of the inhA gene with 1 mM IPTG (isopropyl β-D-thiogalactoside) leads to the production of water-soluble InhA protein at approximately 28.5 KDa (28,368 Da) (monomeric) which is purified by standard protein purification techniques. The enzyme is present in the form of a tetramer in solution and is kept in 50 mM Hepes buffer, 50% glycerol at −20° C.\nThe InhA enoylreductase activity is monitored by UV spectrometry, by monitoring the disappearance of the signal of the reduced cofactor NADH at 340 nm as a function of time. The percentage inhibition is calculated by subtracting from 100 the ratio of the initial speeds (V) measured during kinetics with and without inhibitor, multiplied by 100:% inhibition=100−(Vinhib/Vblank*100). The initial speed is measured by drawing the tangent to the curve DO=f(time) at time zero.\nThe enzymatic reaction is carried out in a final volume of 100 μl (in a quartz vessel, optical path 1 cm). The absorption of each reaction mixture is determined with a UVIKON 293 spectrophotometer (Bio-Tek Kontron Instruments) connected to a thermostatically controlled bath which makes it possible to maintain the temperature of the vessel at 25° C. A baseline is produced during preincubation immediately before measurements begin. The measurements are carried out over 3 min after a preincubation of 5 min or 2 h.\nThe preincubation is carried out in 90 μl (total volume) of a solution of PIPES buffer 30 mM, NaCl 150 mM, pH=6.8 at 25° C. containing 100 nM of InhA, 100 μM, 20 μM or 10 μM of the compound to be tested (or 500 nM of the pool of INH-NAD adducts constituting the control inhibitors) and 200 μM of NADH. After 5 min or 2 h of preincubation, the addition of 35 μM of the substrate 2-trans-decenoyl-CoA initiates the reaction. […]"}, "[2]": {"test_system": "Corynebacterium glutamicum", "assay": "Growth inhibition of Corynebacterium glutamicum, MTT test", "quoted_text": "The Corynebacterium glutamicum strain is cultivated in a BHI (Brain-Heart Infusion) medium at 30° C. with stirring at 200 rpm. The DO of the culture is measured directly and set to a value of 0.002-0.003 by dilution in the LB culture medium. C. glutamicum also grows in the LB medium, and this is used instead of BHI, which is strongly coloured and interferes with the DO reading at 570 nm.\nThe stock solutions are prepared in DMSO at a concentration 100 times greater than the highest concentration to be tested.\nThe test is carried out in the same way as the test on M. smegmatis.\nThe tests are carried out on 96-well NUNC microplates (Merck-eurolab). All the concentrations were tested at least twice.\nEach well contains 100 μl of compound in solution in the culture medium (LB with 1% final DMSO). Subsequently, 100 μl of bacterial suspension having DO 0.002 at 650 nm are added.\nThe plate is sealed using parafilm and incubated at 30° C. for C. glutamicum. After two hours of incubation, 50 μl of a 1 mg/ml solution of tetrazolium salt (MTT) are added to each well. After one hour of incubation at 30° C. for C. glutamicum, 100 μl of lysis buffer are added to each well and the plate is left with stirring at ambient temperature until the solution is fully homogeneous.\nThe optical density is measured at 570 nm with a μQuant 96-well microplate spectrophotometer, Bio-tek Instruments, Inc."}}, "data": [{"smiles": "CCCCCCCCCCCCOc1cccc(C2(O)NC(=O)c3cnccc32)c1", "note": "(centres unmarked) [Example 2, 1-(3-dodecyloxyphenyl)-1-hydroxy-1,2-dihydropyrrolo[3,4-c]pyridin-3-one]", "values": [{"measurement": "inhibition at 100 µM", "setting": "[1]; inhibitor concentration 100 μM, preincubation time 2 h (*)", "result": 80, "unit": "%"}]}, {"smiles": "CCCCCCCCCCCCc1cccc(C2(O)NC(=O)c3c[n+](CC(=O)OCC)ccc32)c1", "note": "(centres unmarked) [Example 3, 1-(3-dodecylphenyl)-5-[2-(ethyloxy)-2-oxoethyl]-1-hydroxy-3-oxo-1,2-dihydropyrrolo[3,4-c]pyridinium bromide]", "values": [{"measurement": "inhibition at 10 µM", "setting": "[1]", "result": 19, "unit": "%"}]}, {"smiles": "CCCCCCCCCCCCc1cccc(C(=O)C2C=CN(CC(=O)OCC)C=C2C(N)=O)c1", "note": "(centres unmarked) [Example 4, ethy 3-aminocarbonyl-[4-(3-dodecylbenzoyl)-1,4-dihydro-pyridin-1-yl]acetate]", "values": [{"measurement": "inhibition at 10 µM", "setting": "[1]", "result": 25, "unit": "%"}]}, {"smiles": "NNC(=O)c1ccncc1", "note": "[Isoniazide]", "values": [{"measurement": "IC50", "setting": "[2]; Corynebacterium glutamicum, read-out: CI50 (concentration corresponding to 50% inhibition) on the bacterial strain C. glutamicum", "result": "> 5", "unit": "mM"}, {"measurement": "activity on C. glutamicum", "setting": "[2]; at 5 mM", "result": "does not exhibit any activity"}]}]}
